Measured values as given in ChEMBL document CHEMBL5465560, “Selectivity Literature for EUbOPEN Chemogenomic Library” (2024).

Experiments:
[1] = biological target: Cyclin-dependent kinase 16 (Homo sapiens) (UniProt Q00536); test: Selectivity interaction (Kinase panel (KiNativ target engagement assay in Jurkat cells)) EUB0001635a CDK16; assay type: cell-based; details: Selectivity number of off-targets 0.0, Selectivity number of targets 233.0, Source Knowledge https://www.sciencedirect.com/science/article/pii/S2451945619300674?via%3Dihub, at 1 µM
Sequence of Cyclin-dependent kinase 16 (Homo sapiens) (Q00536 whole entry): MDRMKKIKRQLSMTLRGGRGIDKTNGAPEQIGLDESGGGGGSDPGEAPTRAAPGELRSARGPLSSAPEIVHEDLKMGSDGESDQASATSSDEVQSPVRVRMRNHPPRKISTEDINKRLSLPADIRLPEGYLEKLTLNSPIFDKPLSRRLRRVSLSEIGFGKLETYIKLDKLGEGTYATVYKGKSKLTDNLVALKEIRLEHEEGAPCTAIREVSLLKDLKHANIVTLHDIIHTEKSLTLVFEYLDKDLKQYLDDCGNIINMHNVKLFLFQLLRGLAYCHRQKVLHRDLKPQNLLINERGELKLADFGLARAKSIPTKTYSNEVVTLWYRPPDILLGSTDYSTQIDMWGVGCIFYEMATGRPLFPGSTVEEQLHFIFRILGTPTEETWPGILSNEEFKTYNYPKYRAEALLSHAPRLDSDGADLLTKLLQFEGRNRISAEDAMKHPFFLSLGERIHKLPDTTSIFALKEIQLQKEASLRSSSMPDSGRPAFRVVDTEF

[2] = biological target: TRAF2 and NCK-interacting protein kinase (Homo sapiens) (UniProt Q9UKE5); test: Selectivity interaction (KinomeScan (DiscoverX)) EUB0000666a TNIK; details: at 10 µM
Sequence of TRAF2 and NCK-interacting protein kinase (Homo sapiens) (Q9UKE5 whole entry, looked up): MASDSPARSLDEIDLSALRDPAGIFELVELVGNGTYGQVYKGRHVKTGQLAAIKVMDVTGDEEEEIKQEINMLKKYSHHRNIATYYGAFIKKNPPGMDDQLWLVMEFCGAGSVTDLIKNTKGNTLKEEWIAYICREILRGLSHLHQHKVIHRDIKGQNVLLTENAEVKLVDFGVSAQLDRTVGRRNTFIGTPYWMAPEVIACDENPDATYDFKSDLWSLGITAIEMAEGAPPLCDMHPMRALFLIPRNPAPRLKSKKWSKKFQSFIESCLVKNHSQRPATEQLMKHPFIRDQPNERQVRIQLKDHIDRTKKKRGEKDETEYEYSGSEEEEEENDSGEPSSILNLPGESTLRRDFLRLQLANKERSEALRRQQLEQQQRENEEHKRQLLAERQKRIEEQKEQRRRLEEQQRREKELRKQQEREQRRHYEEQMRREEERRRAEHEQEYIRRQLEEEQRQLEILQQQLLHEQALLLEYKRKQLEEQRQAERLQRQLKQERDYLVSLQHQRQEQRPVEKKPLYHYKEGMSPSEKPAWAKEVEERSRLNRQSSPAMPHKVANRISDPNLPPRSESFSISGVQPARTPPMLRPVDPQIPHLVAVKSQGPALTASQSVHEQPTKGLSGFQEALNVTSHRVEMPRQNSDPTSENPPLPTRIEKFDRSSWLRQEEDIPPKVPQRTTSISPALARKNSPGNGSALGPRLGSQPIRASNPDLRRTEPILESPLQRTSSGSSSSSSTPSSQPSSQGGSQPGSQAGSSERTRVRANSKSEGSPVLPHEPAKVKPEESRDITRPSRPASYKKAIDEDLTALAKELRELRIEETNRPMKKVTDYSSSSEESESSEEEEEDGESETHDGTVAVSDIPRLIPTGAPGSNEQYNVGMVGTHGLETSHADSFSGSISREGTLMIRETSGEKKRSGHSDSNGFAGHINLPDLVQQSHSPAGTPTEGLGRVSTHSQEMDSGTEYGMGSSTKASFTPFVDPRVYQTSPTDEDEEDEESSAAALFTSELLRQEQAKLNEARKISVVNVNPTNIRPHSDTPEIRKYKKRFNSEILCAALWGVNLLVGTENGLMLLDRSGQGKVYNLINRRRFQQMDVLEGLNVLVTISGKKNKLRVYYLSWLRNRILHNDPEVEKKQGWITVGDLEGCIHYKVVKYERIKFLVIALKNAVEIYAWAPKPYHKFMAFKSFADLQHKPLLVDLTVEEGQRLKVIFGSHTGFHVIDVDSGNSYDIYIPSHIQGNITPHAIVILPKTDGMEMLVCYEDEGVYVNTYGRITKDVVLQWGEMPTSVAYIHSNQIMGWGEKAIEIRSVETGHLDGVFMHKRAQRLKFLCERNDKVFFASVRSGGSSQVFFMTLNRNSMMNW

[3] = biological target: T1, Serine/threonine-protein kinase TBK1 (Homo sapiens) (UniProt Q9UHD2); test: Selectivity interaction (KinomeScan (DiscoverX)) EUB0000666a TBK1; details: at 10 µM
T1 sequence (whole entry): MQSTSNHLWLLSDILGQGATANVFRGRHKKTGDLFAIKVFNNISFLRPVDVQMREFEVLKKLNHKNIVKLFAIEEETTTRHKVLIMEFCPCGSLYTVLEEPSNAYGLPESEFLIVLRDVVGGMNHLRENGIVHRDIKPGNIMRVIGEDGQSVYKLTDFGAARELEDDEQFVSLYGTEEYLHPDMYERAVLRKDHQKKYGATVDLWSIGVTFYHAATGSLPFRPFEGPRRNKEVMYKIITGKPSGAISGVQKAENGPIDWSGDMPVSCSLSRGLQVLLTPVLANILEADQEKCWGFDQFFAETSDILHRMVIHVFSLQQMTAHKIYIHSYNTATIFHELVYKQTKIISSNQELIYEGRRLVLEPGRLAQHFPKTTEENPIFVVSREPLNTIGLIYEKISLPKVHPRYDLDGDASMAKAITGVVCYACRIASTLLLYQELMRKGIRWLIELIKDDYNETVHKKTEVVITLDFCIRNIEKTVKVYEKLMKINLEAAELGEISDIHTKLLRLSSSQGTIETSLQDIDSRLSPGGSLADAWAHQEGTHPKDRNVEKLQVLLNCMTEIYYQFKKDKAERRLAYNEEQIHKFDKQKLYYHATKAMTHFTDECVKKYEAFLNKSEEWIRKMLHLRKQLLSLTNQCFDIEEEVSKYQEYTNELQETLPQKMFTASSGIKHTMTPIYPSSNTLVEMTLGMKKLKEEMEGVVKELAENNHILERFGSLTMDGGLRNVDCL

[4] = biological target: T2, Serine/threonine-protein kinase DCLK1 (Homo sapiens) (UniProt O15075); details: at 10 µM
T2 sequence (whole entry): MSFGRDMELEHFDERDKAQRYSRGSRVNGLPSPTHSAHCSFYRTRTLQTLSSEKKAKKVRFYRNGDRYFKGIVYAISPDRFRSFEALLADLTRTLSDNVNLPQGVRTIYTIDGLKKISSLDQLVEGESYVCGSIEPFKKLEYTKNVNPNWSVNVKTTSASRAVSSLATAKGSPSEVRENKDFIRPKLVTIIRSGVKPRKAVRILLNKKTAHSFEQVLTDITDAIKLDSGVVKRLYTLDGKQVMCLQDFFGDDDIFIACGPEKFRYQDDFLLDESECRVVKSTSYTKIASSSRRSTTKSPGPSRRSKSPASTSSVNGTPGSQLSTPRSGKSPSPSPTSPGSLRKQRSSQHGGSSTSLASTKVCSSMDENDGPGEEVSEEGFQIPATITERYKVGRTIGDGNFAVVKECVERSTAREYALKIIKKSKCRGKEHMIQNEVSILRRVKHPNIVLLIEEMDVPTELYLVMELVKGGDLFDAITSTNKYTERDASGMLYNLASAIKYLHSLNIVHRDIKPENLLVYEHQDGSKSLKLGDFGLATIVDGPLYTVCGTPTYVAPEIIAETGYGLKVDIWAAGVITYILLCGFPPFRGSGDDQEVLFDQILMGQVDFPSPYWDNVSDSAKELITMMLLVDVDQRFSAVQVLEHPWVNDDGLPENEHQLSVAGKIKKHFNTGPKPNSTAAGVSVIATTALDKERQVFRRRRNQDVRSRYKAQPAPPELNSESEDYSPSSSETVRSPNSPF

[5] = biological target: T3, Tyrosine-protein kinase ZAP-70 (Homo sapiens) (UniProt P43403); details: at 10 µM
T3 sequence (whole entry): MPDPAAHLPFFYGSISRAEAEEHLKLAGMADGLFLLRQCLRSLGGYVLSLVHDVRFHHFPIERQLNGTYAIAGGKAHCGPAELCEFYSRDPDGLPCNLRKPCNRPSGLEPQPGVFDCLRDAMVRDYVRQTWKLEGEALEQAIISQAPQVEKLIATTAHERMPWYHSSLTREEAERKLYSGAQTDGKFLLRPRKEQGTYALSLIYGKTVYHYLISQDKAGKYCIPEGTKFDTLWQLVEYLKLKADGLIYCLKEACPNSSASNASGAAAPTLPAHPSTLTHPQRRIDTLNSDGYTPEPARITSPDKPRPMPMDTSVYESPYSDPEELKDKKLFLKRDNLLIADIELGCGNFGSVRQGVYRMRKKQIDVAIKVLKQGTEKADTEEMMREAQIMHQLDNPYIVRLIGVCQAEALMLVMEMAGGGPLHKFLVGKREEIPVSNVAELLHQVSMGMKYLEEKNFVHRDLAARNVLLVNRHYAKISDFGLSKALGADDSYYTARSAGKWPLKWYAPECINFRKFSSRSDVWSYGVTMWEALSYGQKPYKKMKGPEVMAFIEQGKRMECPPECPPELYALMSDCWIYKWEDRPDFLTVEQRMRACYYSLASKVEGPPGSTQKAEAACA

[6] = biological target: Sphingosine kinase 1 (Homo sapiens) (UniProt Q9NYA1); test: Selectivity interaction (Adapta Assay) EUB0001632a SPHK1; details: at 10 µM
Sequence of Sphingosine kinase 1 (Homo sapiens) (Q9NYA1 whole entry, canonical isoform): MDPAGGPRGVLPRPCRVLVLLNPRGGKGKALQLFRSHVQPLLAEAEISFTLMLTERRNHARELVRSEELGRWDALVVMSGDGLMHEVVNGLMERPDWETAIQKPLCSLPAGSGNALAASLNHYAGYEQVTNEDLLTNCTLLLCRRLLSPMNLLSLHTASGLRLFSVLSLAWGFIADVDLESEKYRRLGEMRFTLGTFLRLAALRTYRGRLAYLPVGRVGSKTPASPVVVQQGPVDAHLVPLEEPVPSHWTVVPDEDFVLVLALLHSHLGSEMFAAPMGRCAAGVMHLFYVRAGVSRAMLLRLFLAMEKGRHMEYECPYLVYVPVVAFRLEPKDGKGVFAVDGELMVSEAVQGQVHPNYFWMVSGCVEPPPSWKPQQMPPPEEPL

[7] = system: Phosphatidylinositol 4,5-bisphosphate 3-kinase catalytic subunit alpha isoform (Homo sapiens), P42336 [E542K]; details: at 10 µM
Sequence of Phosphatidylinositol 4,5-bisphosphate 3-kinase catalytic subunit alpha isoform (Homo sapiens), P42336 [E542K] (P42336 whole entry E542K, canonical isoform): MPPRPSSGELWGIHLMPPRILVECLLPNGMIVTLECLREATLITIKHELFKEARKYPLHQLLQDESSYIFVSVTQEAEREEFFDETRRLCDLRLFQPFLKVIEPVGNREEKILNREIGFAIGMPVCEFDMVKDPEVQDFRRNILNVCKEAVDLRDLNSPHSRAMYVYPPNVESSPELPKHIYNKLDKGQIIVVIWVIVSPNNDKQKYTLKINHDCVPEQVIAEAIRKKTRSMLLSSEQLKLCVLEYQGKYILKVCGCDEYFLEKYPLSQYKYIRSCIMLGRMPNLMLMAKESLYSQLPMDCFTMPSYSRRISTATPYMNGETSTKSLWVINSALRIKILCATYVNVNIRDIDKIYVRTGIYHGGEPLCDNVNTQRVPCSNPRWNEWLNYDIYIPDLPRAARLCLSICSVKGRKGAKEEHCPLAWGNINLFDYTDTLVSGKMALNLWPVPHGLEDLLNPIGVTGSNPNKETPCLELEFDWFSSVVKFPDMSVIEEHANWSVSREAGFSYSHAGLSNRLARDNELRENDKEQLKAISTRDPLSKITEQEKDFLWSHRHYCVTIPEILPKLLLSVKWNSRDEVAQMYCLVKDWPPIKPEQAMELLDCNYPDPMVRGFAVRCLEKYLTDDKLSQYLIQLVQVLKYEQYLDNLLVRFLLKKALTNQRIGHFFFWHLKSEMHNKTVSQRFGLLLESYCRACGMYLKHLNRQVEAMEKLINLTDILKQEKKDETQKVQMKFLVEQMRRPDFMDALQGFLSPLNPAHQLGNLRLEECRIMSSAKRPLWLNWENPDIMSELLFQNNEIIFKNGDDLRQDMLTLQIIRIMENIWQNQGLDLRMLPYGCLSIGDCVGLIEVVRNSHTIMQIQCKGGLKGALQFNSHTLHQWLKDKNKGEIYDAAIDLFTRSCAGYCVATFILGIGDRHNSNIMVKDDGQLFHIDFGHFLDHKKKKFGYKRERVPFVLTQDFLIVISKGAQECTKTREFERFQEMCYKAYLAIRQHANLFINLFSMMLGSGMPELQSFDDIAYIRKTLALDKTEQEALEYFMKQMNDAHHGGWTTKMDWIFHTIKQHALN

[8] = biological target: Mitogen-activated protein kinase 3 (Homo sapiens, UniProt P27361); test: Selectivity interaction (KinomeScan (DiscoverX)) EUB0000595a MAPK3; details: at 10 µM
Sequence of Mitogen-activated protein kinase 3 (P27361 whole entry): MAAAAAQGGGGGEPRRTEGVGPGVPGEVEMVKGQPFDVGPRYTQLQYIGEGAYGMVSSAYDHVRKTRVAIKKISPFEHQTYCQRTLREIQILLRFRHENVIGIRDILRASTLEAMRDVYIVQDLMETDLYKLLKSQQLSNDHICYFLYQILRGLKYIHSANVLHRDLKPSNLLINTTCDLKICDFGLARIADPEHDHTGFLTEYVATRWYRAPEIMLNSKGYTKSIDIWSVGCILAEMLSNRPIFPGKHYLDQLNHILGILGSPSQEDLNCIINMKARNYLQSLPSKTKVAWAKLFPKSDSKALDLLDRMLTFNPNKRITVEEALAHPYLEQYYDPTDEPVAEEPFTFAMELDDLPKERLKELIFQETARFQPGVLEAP

[9] = biological target: Tyrosine-protein kinase Blk (Homo sapiens) (UniProt P51451); test: Selectivity interaction (KinomeScan (DiscoverX)) EUB0000618a BLK; details: at 10 µM
Sequence of Tyrosine-protein kinase Blk (Homo sapiens) (P51451 2-505 limits assumed): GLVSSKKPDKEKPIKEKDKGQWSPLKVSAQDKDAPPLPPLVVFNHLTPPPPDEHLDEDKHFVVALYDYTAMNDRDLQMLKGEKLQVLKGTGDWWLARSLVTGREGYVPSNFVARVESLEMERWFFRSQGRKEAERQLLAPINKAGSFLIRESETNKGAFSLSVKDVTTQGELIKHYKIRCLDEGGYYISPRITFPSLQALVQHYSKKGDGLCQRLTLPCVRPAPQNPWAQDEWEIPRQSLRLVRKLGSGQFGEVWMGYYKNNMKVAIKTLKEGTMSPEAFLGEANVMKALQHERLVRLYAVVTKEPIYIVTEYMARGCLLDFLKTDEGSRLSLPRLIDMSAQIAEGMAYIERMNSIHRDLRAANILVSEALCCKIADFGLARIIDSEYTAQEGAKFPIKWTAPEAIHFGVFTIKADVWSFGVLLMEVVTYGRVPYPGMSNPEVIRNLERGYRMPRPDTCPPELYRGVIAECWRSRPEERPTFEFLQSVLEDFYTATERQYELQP

[10] = biological target: TGF-beta receptor type-2 (Homo sapiens) (UniProt P37173); test: Selectivity interaction (Ambit KINOMEscan and KiNATiv profiling in Jurkat cells) EUB0000090b TGFBR2; assay type: cell-based; details: at 1 µM
Sequence of TGF-beta receptor type-2 (Homo sapiens) (P37173 whole entry): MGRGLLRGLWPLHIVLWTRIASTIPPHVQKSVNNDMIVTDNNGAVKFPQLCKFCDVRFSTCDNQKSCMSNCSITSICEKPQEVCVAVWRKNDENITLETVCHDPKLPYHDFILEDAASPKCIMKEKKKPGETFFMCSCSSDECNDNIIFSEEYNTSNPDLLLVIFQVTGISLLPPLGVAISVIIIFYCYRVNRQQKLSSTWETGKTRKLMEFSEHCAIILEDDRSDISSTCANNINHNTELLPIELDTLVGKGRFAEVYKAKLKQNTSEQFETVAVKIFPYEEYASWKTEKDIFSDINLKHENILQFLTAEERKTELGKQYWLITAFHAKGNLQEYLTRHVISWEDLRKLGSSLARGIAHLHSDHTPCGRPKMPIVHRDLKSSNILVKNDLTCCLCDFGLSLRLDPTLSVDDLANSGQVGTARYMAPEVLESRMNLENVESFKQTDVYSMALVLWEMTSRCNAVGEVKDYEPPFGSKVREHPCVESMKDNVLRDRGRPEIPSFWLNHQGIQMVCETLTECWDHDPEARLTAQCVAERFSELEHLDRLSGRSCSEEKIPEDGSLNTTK

C=CC(=O)Nc1ccc(C(=O)Nc2[nH]nc3c2CN(C(=O)N[C@H](CN(C)C)c2ccccc2)C3(C)C)cc1
% of engagement [1]: 3.1%

O=C(NOC[C@H](O)CO)c1ccc(F)c(F)c1Nc1ccc(I)cc1F
% of control [2]: 100%
% of control [3]: 85%

Cc1cc([C@@H](C)Nc2ccccc2C(=O)O)c2nc(N3CCOCC3)cc(=O)n2c1 [AZD-6482]
% of control [4]: 78%
% of control [5]: 100%

Cn1cc(-n2cnc3c(NCc4nc5cc(Cl)c(Cl)cc5[nH]4)nc(N4CCOCC4)nc32)cn1
% of inhibition [6]: 53.7%

COCC(=O)NC/C=C/c1ccc2ncnc(Nc3ccc(Oc4ccc(C)nc4)c(C)c3)c2c1 [CP-724714]
% of control [7]: 100%
% of control [8]: 95%

O[C@H]1CC[C@H](Nc2ncc3nc(Nc4c(F)cc(F)cc4F)n([C@H]4CCOC4)c3n2)CC1
% of control [9]: 98%

CN(C)C/C=C/C(=O)Nc1ccc(C(=O)N2CCCC(Nc3ncc(Cl)c(-c4c[nH]c5ccccc45)n3)C2)cc1 (stereo not given)
% of control [10]: 87%
